How the values were obtained:
Rattus norvegicus [1] = species: Rattus norvegicus; assay: Minimum effective peroral dose in Geller-Seifter paradigm; assay type: functional; conditions: po, read-out: MED
[2] = test system: GABA-A receptor; anion channel; assay: Displacement of [3H]flunitrazepam from rat cerebral cortex (Insoluble); assay type: tissue-based
[3] = test system: GABA-A receptor; anion channel; assay: Inhibition of [35S]TBPS binding to Gamma-aminobutyric acid A (GABA-A) receptor of rat brain in the presence of 5 uM GABA
[4] = molecular target: T1, GABA-A receptor; anion channel (Rattus norvegicus) (UniProt O09028+P15431+P18506+P18508+P19969+P20236+P23574+P23576+P28471+P28473+P30191+P62813+P63079+P63138+Q91ZM7+Q9ES14); conditions: 0.01 uM
Description: Inhibition of [35S]TBPS binding to Gamma-aminobutyric acid A (GABA-A) receptor of rat brain in the presence of 5 uM GABA at 0.01 uM

Rattus norvegicus [5] = assay: Punished responding phase in Geller-Seifter test was determined at 2 hr post-dose of 5 mg/Kg p.o.; assay type: functional
Rattus norvegicus [6] = assay: Punished responding phase in Geller-Seifter test was determined at 1 hr post-dose of 5 mg/Kg p.o.; assay type: functional
[7] = molecular target: T1, GABA-A receptor; anion channel (Rattus norvegicus); conditions: Cerebral cortex, 0.12 uM
Description: Inhibition of [3H]Flunitrazepam binding to rat cerebral cortex at 0.12 uM

Rattus norvegicus [8] = assay: Number of animals responding out of those tested (Nr/N) in Geller-Seifter test was determined at 1 hr post-dose of 5 mg/Kg p.o. (Animals tested 8); assay type: functional
Rattus norvegicus [9] = assay: Number of animals responding out of those tested (Nr/N) in Geller-Seifter test was determined at 2 hr post-dose of 5 mg/Kg p.o. (Animals tested 16); assay type: functional
Rattus norvegicus [10] = assay: Punished responding phase in Geller-Seifter test was determined at 1 hr post-dose of 10 mg/Kg p.o.; assay type: functional
Rattus norvegicus [11] = assay: Number of animals responding out of those tested (Nr/N) in Geller-Seifter test was determined at 1 hr post-dose of 5 mg/Kg p.o. (Animals tested 14); assay type: functional
Rattus norvegicus [12] = assay: Number of animals responding out of those tested (Nr/N) in Geller-Seifter test was determined at 1 hr post-dose of 50 mg/Kg p.o. (Animals tested 6); assay type: functional
Rattus norvegicus [13] = assay: Punished responding phase in Geller-Seifter test was determined at 1 hr post-dose of 100 mg/Kg p.o.; assay type: functional
Rattus norvegicus [14] = assay: Number of animals responding out of those tested (Nr/N) in Geller-Seifter test was determined at 2 hr post-dose of 20 mg/Kg p.o. (Animals tested 6); assay type: functional
Rattus norvegicus [15] = assay: Number of animals responding out of those tested (Nr/N) in Geller-Seifter test was determined at 1 hr post-dose of 100 mg/Kg p.o. (Animals tested 6); assay type: functional
Rattus norvegicus [16] = assay: Number of animals responding out of those tested (Nr/N) in Geller-Seifter test was determined at 1 hr post-dose of 20 mg/Kg p.o. (Animals tested 6); assay type: functional
Rattus norvegicus [17] = assay: Punished responding phase in Geller-Seifter test was determined at 2 hr post-dose of 10 mg/Kg p.o.; assay type: functional
Rattus norvegicus [18] = assay: Number of animals responding out of those tested (Nr/N) in Geller-Seifter test was determined at 2 hr post-dose of 100 mg/Kg p.o. (Animals tested 6); assay type: functional
Rattus norvegicus [19] = assay: Number of animals responding out of those tested (Nr/N) in Geller-Seifter test was determined at 2 hr post-dose of 50 mg/Kg p.o. (Animals tested 6); assay type: functional
Rattus norvegicus [20] = assay: Punished responding phase in Geller-Seifter test was determined at 1 hr post-dose of 50 mg/Kg p.o.; assay type: functional
Rattus norvegicus [21] = assay: Punished responding phase in Geller-Seifter test was determined at 2 hr post-dose of 100 mg/Kg p.o.; assay type: functional
Rattus norvegicus [22] = assay: Punished responding phase in Geller-Seifter test was determined at 2 hr post-dose of 50 mg/Kg p.o.; assay type: functional
Rattus norvegicus [23] = assay: Number of animals responding out of those tested (Nr/N) in Geller-Seifter test was determined at 1 hr post-dose of 10 mg/Kg p.o. (Animals tested 6); assay type: functional
Rattus norvegicus [24] = assay: Number of animals responding out of those tested (Nr/N) in Geller-Seifter test was determined at 2 hr post-dose of 10 mg/Kg p.o. (Animals tested 14); assay type: functional
Rattus norvegicus [25] = assay: Number of animals responding out of those tested (Nr/N) in Geller-Seifter test was determined at 1 hr post-dose of 2.5 mg/Kg p.o. (Animals tested 6); assay type: functional
Rattus norvegicus [26] = assay: Punished responding phase in Geller-Seifter test was determined at 1 hr post-dose of 20 mg/Kg p.o.; assay type: functional
[27] = molecular target: GABA-A receptor; anion channel; assay: Displacement of [3H]flunitrazepam from rat cerebral cortex; assay type: tissue-based
Rattus norvegicus [28] = assay: Punished responding phase in Geller-Seifter test was determined at 2 hr post-dose of 20 mg/Kg p.o.; assay type: functional
Rattus norvegicus [29] = assay: Punished responding phase in Geller-Seifter test was determined at 1 hr post-dose of 2.5 mg/Kg p.o.; assay type: functional
Rattus norvegicus [30] = assay: Number of animals responding out of those tested (Nr/N) in Geller-Seifter test was determined at 2 hr post-dose of 20 mg/Kg p.o. (Animals tested 8); assay type: functional
Rattus norvegicus [31] = assay: Number of animals responding out of those tested (Nr/N) in Geller-Seifter test was determined at 2 hr post-dose of 20 mg/Kg p.o. (Animals tested 16); assay type: functional
Rattus norvegicus [32] = assay: Number of animals responding out of those tested (Nr/N) in Geller-Seifter test was determined at 1 hr post-dose of 100 mg/Kg p.o. (Animals tested 16); assay type: functional
Rattus norvegicus [33] = assay: Number of animals responding out of those tested (Nr/N) in Geller-Seifter test was determined at 1 hr post-dose of 50 mg/Kg p.o. (Animals tested 16); assay type: functional
Rattus norvegicus [34] = assay: Number of animals responding out of those tested (Nr/N) in Geller-Seifter test was determined at 1 hr post-dose of 5 mg/Kg p.o. (Animals tested 6); assay type: functional
Rattus norvegicus [35] = assay: Number of animals responding out of those tested (Nr/N) in Geller-Seifter test was determined at 1 hr post-dose of 10 mg/Kg p.o. (Animals tested 15); assay type: functional
Rattus norvegicus [36] = assay: Number of animals responding out of those tested (Nr/N) in Geller-Seifter test was determined at 1 hr post-dose of 20 mg/Kg p.o. (Animals tested 16); assay type: functional
Rattus norvegicus [37] = assay: Number of animals responding out of those tested (Nr/N) in Geller-Seifter test was determined at 2 hr post-dose of 50 mg/Kg p.o. (Animals tested 16); assay type: functional

Cn1c2ccccc2c2c(N)c3c(nc21)CCOC3=O
minimal effective dose (Rattus norvegicus [1]): > 20 mg/kg
IC50 [2]: Insoluble
IC50 [3]: Insoluble

CCCC(=O)c1c(C)nc2c(c1N)c1ccccc1n2C
minimal effective dose (Rattus norvegicus [1]): 20 mg/kg
IC50 ([3]; read-out: IC50): 2.3 µM

CN1C(=O)CN=C(c2ccccc2)c2cc(Cl)ccc21 [DIAZEPAM]
minimal effective dose (Rattus norvegicus [1]): 2.5 mg/kg
inhibition [4]: < 50%
Change (Rattus norvegicus [5]): 38%
Change (Rattus norvegicus [6]): 57%
inhibition [7]: 100%
Nr/N (Rattus norvegicus [8]): 6
Nr/N (Rattus norvegicus [9]): 8

CCC1CCc2nc3c(c(N)c2C1=O)c1ccccc1n3C (centres undefined)
minimal effective dose (Rattus norvegicus [1]): 20 mg/kg
IC50 ([3]; read-out: IC50): 0.94 µM

CC1CCc2nc3c(c(N)c2C1=O)c1ccccc1n3C (centres undefined)
Change (Rattus norvegicus [10]): 43%
minimal effective dose (Rattus norvegicus [1]): 5 mg/kg
Nr/N (Rattus norvegicus [11]): 8
Nr/N (Rattus norvegicus [12]): 5
Change (Rattus norvegicus [13]): 137%
Nr/N (Rattus norvegicus [14]): 6
Nr/N (Rattus norvegicus [15]): 6
Nr/N (Rattus norvegicus [16]): 5
Change (Rattus norvegicus [17]): 22%
IC50 ([3]; read-out: IC50): 0.95 µM
Nr/N (Rattus norvegicus [18]): 6
Nr/N (Rattus norvegicus [19]): 6
Change (Rattus norvegicus [6]): 19%
Change (Rattus norvegicus [20]): 146%
Change (Rattus norvegicus [21]): 141%
Change (Rattus norvegicus [22]): 62%
Nr/N (Rattus norvegicus [23]): 5
Nr/N (Rattus norvegicus [24]): 7
Nr/N (Rattus norvegicus [25]): 0
Change (Rattus norvegicus [26]): 52%
IC50 [27]: > 100 µM
Change (Rattus norvegicus [28]): 36%
Change (Rattus norvegicus [29]): 0%

Cc1nc2c(c(N)c1C(=O)O)c1ccccc1n2C
minimal effective dose (Rattus norvegicus [1]): > 50 mg/kg
IC50 ([3]; read-out: IC50): > 100 µM
IC50 [27]: > 100 µM

CCC(=O)c1c(C)nc2c(c1N)c1ccccc1n2C
minimal effective dose (Rattus norvegicus [1]): 20 mg/kg
Nr/N (Rattus norvegicus [16]): 5
IC50 ([3]; read-out: IC50): 1.6 µM
Nr/N (Rattus norvegicus [30]): 5
Change (Rattus norvegicus [26]): 41%
IC50 [27]: > 100 µM
Change (Rattus norvegicus [28]): 28%

CCOC(=O)c1c(C)nc2c(c1N)c1ccccc1n2C
Change (Rattus norvegicus [10]): 20%
minimal effective dose (Rattus norvegicus [1]): 10 mg/kg
Change (Rattus norvegicus [13]): 122%
Nr/N (Rattus norvegicus [31]): 6
Nr/N (Rattus norvegicus [32]): 14
Nr/N (Rattus norvegicus [33]): 15
Nr/N (Rattus norvegicus [34]): 5
IC50 ([3]; read-out: IC50): 2 µM
Change (Rattus norvegicus [6]): 2%
Change (Rattus norvegicus [20]): 63%
Nr/N (Rattus norvegicus [35]): 10
Nr/N (Rattus norvegicus [36]): 12
Change (Rattus norvegicus [22]): 4%
Change (Rattus norvegicus [26]): 22%
Nr/N (Rattus norvegicus [37]): 6
IC50 [27]: > 100 µM
Change (Rattus norvegicus [28]): 6%
